Data published in EPA's ToxValDB 9.5 (doi:10.2903/j.efsa.2013.3240).
Values after ≈ are worked out from the molar mass of the structure shown.

Assays:
[1] = tested on: Colinus virginianus; conditions: for NOEL: reproduction developmental, reproduction
[2] = tested on: Oncorhynchus mykiss; conditions: acute; duration: 96 hours; mortality
[3] = tested on: Rattus norvegicus
[4] = tested on: Tagia sp.
[5] = tested on: Bibionidae; conditions: chronic/long-term; duration: 28 days; other
[6] = tested on: Apis mellifera; conditions: acute; duration: 48 hours; oral; unspecified; mortality
[7] = tested on: Neomysis kadiakensis
[8] = tested on: Aphidius rhopalosiphi; assay: LR50; higher = less toxic; conditions: acute; duration: 48 hours; mortality
[9] = tested on: Typhlodromus pyri; assay: LR50; higher = less toxic; conditions: acute; duration: 7 days; mortality

For `FC(F)(F)c1ccc(OCCCOc2c(Cl)cc(OCC=C(Cl)Cl)cc2Cl)nc1` [Pyridalyl], the LC50 ([1]; acute, oral, diet, mortality) was 334 mg/kg-day, the LD50 ([1]; acute, oral, mortality) was over 2250 mg/kg-day and the NOEL ([1]; F) was 11.9 mg/kg-day. It also gave an NOEL [1] of 12.6 mg/kg-day, an LC50 [2] of 0.5 µg/mL (≈ 1.02 µM) and an LD50 ([3]; acute, oral, mortality) of over 5000 mg/kg-day. It also gave an NOAEL ([3]; chronic, duration: 2 years, body weight) of 3.4 mg/kg-day, an NOAEL ([3]; reproduction developmental, body weight) of 2.8 mg/kg-day and an NOAEL ([3]; subchronic, duration: 13 weeks, oral, hematological) of 5.6 mg/kg-day. It also gave an LC50 ([4]; acute, duration: 14 days, mortality) of over 1000 mg/kg, an NOEC ([4]; chronic/long-term, duration: 56 days, reproduction) of 63 mg/kg and an NOEC [5] of 12 µg/L. The LD50 [6] was over 100 µg/piece, the LC50 ([7]; acute, duration: 96 hours, mortality) was 0.001 µg/mL (≈ 0.00204 µM) and the NOEC ([7]; chronic/long-term, duration: 28 days, reproduction) was 0.45 µg/L. The LR50 [8] was 458 g/ha and the LR50 [9] was over 600 g/ha.
